Patent US20120196933A1, “MEXILETINE PRODRUGS” (priority 2010, published 2012)

What was measured:
[1] = test system: rabbit stomach smooth muscle; test: Electrical field stimulated contractions of isolated rabbit stomach smooth muscle; type: cell-based; details: Oryctolagus cuniculus, read-out: ED50 for attenuation of EFS induced contractions
ADR mouse = test: Anti-myotonic effects in the ADR mouse (righting response); type: in vivo; details: oral 5 mg/kg
Experimental: The effects of oral administration of either mexiletine glutamic acid amide at 5, 10 or 20 mg/kg or mexiletine 5 mg/kg on the righting response of a group of three adr/adr mice were examined on three separate days. Each assessment involved placing the individual mice on their back no fewer than seven successive occasions in rapid succession and determining the time to successful righting at various time pre and post dosing (−10, +15, +30, +60, +120 & +180 mins).

[2] = test system: 9-AC induced myotonia in the rat; test: Anti-myotonic effects in 9-anthracene carboxylic acid (9-AC) treated rats (righting time); type: in vivo; details: for Mean ± SEM righting response time: 9-AC 30 mg/kg ip
Experimental: The use of ip injection of 9-anthracene carboxylic acid is known to induce a myotonic state in rats which can then be used to assess the activity of potential anti-myotonic compounds (Villegas-NavarroA et al (1992) Exp. Toxicol. Pathol. 44 34-39).
Groups of four rats were predosed with 30 mg/kg 9-AC (time 0) and ten minutes later their righting time was assessed repeatedly seven times in rapid succession. They were then dosed po with mexiletine or mexiletine glutamic acid amide at 1, 5, 10, 20 or 40 mg/kg and the righting time reassessed at ˜30, 60, 120 and 180 minutes after 9-AC injection. At each dose level, a group of four control animals, given vehicle alone, was used

[3] = test system: patients with myotonic disorders; details: 1200 mg daily tocamide or 600 mg daily mexiletine, three divided doses; cited from earlier work
[4] = test system: patients with myotonic dystrophy (type 1); details: 150 tid or 200 mg tid, 7 weeks; cited from earlier work
patients = details: cited from earlier work
sodium channel = details: relative to mexiletine; cited from earlier work

## Cc1cccc(C)c1OCC(C)N.Cl (racemic) [Mexiletine hydrochloride, (rac)-1-(2,6-dimethylphenoxy)-2-propanamine hydrochloride]
[1]
  EC50: 2.17 µM
ADR mouse
  Effects on righting time: marginal
ADR mouse; +15 mins
  Mean ± SEM righting response time: 7.80 ± 3.72 s
ADR mouse; +30 mins
  Mean ± SEM righting response time: 9.53 ± 5.07 s
ADR mouse; +60 mins
  Mean ± SEM righting response time: 10.5 ± 3.68 s
ADR mouse; +120 mins
  Mean ± SEM righting response time: 12.5 ± 4.98 s
ADR mouse; +180 mins
  Mean ± SEM righting response time: 12.5 ± 4.27 s
ADR mouse; −10 mins (pre dosing)
  Mean ± SEM righting response time: 7.94 ± 1.25 s
[2]; 10 mg/kg (same molar dose level), time of maximal effect of 9-AC (+30 mins)
  Coefficient of variation of the response: 96%
[2]; drug 1 mg/kg po, 9-AC +10 mins (predrug)
  Mean ± SEM righting response time: 1.96 ± 0.193 s
[2]; drug 1 mg/kg po, 9-AC +30 mins
  Mean ± SEM righting response time: 2.94 ± 0.490 s
[2]; drug 1 mg/kg po, 9-AC +60 mins
  Mean ± SEM righting response time: 1.73 ± 0.165 s
[2]; drug 1 mg/kg po, 9-AC +120 mins
  Mean ± SEM righting response time: 1.17 ± 0.124 s
[2]; drug 1 mg/kg po, 9-AC +180 mins
  Mean ± SEM righting response time: 0.831 ± 0.169 s
[2]; drug 5 mg/kg po, 9-AC +10 mins (predrug)
  Mean ± SEM righting response time: 2.36 ± 0.208 s
[2]; drug 5 mg/kg po, 9-AC +30 mins
  Mean ± SEM righting response time: 2.21 ± 0.153 s
[2]; drug 5 mg/kg po, 9-AC +60 mins
  Mean ± SEM righting response time: 2.34 ± 0.386 s
[2]; drug 5 mg/kg po, 9-AC +120 mins
  Mean ± SEM righting response time: 1.33 ± 0.194 s
[2]; drug 5 mg/kg po, 9-AC +180 mins
  Mean ± SEM righting response time: 0.980 ± 0.220 s
[2]; drug 10 mg/kg po, 9-AC +10 mins (predrug)
  Mean ± SEM righting response time: 2.26 ± 0.195 s
[2]; drug 10 mg/kg po, 9-AC +30 mins
  Mean ± SEM righting response time: 3.28 ± 1.58 s
[2]; drug 10 mg/kg po, 9-AC +60 mins
  Mean ± SEM righting response time: 2.28 ± 0.347 s
[2]; drug 10 mg/kg po, 9-AC +120 mins
  Mean ± SEM righting response time: 1.41 ± 0.190 s
[2]; drug 20 mg/kg po, 9-AC +10 mins (predrug)
  Mean ± SEM righting response time: 2.27 ± 0.260 s
[2]; drug 20 mg/kg po, 9-AC +60 mins
  Mean ± SEM righting response time: 1.43 ± 0.294 s
[2]; drug 20 mg/kg po, 9-AC +120 mins
  Mean ± SEM righting response time: 0.949 ± 0.131 s
[2]; drug 40 mg/kg po, 9-AC +10 mins (predrug)
  Mean ± SEM righting response time: 2.61 ± 0.088 s
[2]; drug 40 mg/kg po, 9-AC +60 mins
  Mean ± SEM righting response time: 0.913 ± 0.0507 s
[2]; drug 40 mg/kg po, 9-AC +120 mins
  Mean ± SEM righting response time: 0.746 ± 0.0699 s
[2]; drug 40 mg/kg po, 9-AC +180 mins
  Mean ± SEM righting response time: 0.583 ± 0.0606 s
[3]
  Increase in the speed of stair step movement: 2.8 fold
  Reduction in the time taken for eye opening: 6 fold
  Reduction of hand opening time: 6.9 fold
[4]
  Reduction in grip relaxation time: 2 fold

## CNCC[C@H](Oc1cccc2ccccc12)c1cccs1 [Duloxetine, duloxetine]
patients; treated patients
  Treated patients with nausea: 20-40%

## Cc1cc(O)cc(C)c1OCC(C)N (stereo not shown) [Para-hydroxymexiletine]
Sodium channel
  Sodium channel inhibitory activity retained relative to the parent molecule: around 25%

## CC(C)C[C@H](CN)CC(=O)O [pregabalin]
patients; patients treated at the higher doses
  Patients with dizziness and somnolence: up to 30%
